This note sets out measurements from BindingDB's records for doi:10.1021/acschembio.7b00489 (Michigan State University, 2017).

Where “and” joins values, the source holds several entries; their conditions need not be identical. Equal entries are not always repeated. Structures can show the parent of a compound that is named as a salt. Where only a bound is given, the exact number is not on record here.

In general, EC50 refers to the concentration at which the effect is half-maximal. The term Ki denotes a dissociation constant, usually derived from enzyme kinetics or from competition with a known ligand.

Test [1] deals with Proteasome subunit alpha type-6 (Homo sapiens, UniProt P60900). Description: Proteasome Activity Assay. The note with it: pH 7.5; 37 °C. The protocol:
Activity assays were carried out in a 200 uL reaction volume. Different concentrations of test compounds were added to a black flat/clear bottom 96-well plate containing 1 nM of either human constitutive 20S proteasome or 26S proteasome, in 50 mM Tris-HCl at pH 7.5 and allowed to sit for 10 min at RT. Fluorogenic substrates were then added and the enzymatic activity measured at 37 °C on a SpectraMax M5e spectrometer by measuring the change in fluorescence unit per minute for 1 h at 380−460 nm. The fluorescence units for the vehicle control were set at a 100%, and the ratio of drug-treated sample set to that of vehicle control was used to calculate the fold change in enzymatic activity.

In test [2] the target is Dopamine D2 receptor (Homo sapiens). Description: Human embryonic kidney (HEK-293) cells were plated in 100 mm plates and transfected with pcDNA3.1-D2R using Lipofectamine 2000 (Invitrogen; Waltham, MA) according to the manufacturer's instructions. Radioligand binding assays were performed 24 h after transfection essentially as described.

Chain of Proteasome subunit alpha type-6 (P60900 whole entry): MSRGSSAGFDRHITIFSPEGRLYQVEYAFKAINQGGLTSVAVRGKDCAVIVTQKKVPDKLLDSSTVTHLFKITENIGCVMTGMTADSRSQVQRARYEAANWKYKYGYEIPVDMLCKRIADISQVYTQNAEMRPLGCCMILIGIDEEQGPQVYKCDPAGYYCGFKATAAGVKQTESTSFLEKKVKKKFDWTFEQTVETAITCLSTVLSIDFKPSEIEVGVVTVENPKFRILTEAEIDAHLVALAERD

For `CSc1ccc2c(c1)N(CC[C@@H]1CCCCN1C)c1ccccc1S2` [10-[2-(1-Methyl-piperidin-2-yl)-ethyl]-2-methylsulfanyl-10H-phenothiazine (thioridazine)], a half-maximal effect in test [1] (EC50) was put at 12 µM. In test [1], `CN(C)CCCN1c2ccccc2CCc2ccc(Cl)cc21` [CLOMIPRAMINE HYDROCHLORIDE] registered an EC50 of 12.4 µM.

Take `CC(C)CCCN1c2ccccc2Sc2ccc(Cl)cc21` [CPZ analog, 1]: in test [1], the EC50 was above 25 µM. This molecule also yielded a Ki in test [2] above 250 µM. For the molecule `O=S(=O)(O)CCCCN1c2ccccc2Sc2ccc(Cl)cc21` [CPZ analog, 2], in test [1], the EC50 was found to be 6.3 µM. The Ki in test [2] was above 250 µM. In the case of `O=S(=O)(O)CCCN1c2ccccc2Sc2ccc(Cl)cc21` [CPZ analog, 3], the EC50 in test [1] is above 25 µM. Regarding `O=S(=O)(O)CCCCCN1c2ccccc2Sc2ccc(Cl)cc21` [CPZ analog, 4], the half-maximal effective concentration (EC50) in test [1] is above 25 µM. Molecule `Clc1ccc2c(c1)N(CCCCN1CCOCC1)c1ccccc1S2` [CPZ analog, 5] came in with an EC50 in test [1] of 8.9 µM. The molecule also returned a Ki in test [2] above 2.97 µM. Molecule `O=C(O)C#CCN1c2ccccc2Sc2ccc(Cl)cc21` [CPZ analog, 6] yielded an EC50 in test [1] above 25 µM. In addition, the Ki in test [2] is above 250 µM. For `O=C(O)c1ccc(CN2c3ccccc3Sc3ccc(Cl)cc32)cc1` [CPZ analog, 7], in that order: 6.4 µM and above 250 µM. Regarding `COC(=O)c1ccc(CN2c3ccccc3Sc3ccc(Cl)cc32)cc1` [CPZ analog, 8], the half-maximal effective concentration (EC50) in test [1] was determined as 15.6 µM. In test [2], this molecule came in with an inhibition constant Ki above 250 µM. In test [1], `CN1CCCC(CC2c3ccccc3Sc3ccccc32)C1` (centres undefined) [METHIXENE] displayed an EC50 of 11.9 µM. Same read-out and setting: the value for `CN(C)CCCN1c2ccccc2Sc2ccc(C(F)(F)F)cc21` [TRIFLUPROMAZINE] was 7.8 µM.

`CN(C)CCCN1c2ccccc2Sc2ccc(Cl)cc21` [[3-(2-Chloro-phenothiazin-10-yl)-propyl]-dimethyl-amine(Chlorpromazine)]: the concentration giving a half-maximal response (EC50) in test [1] is 14.8 µM and 9.9 µM.
